What was measured:
[1] = target: T1, MtbCitE (CitE) (Mycobacterium tuberculosis, UniProt P9WPE1)
[2] = target: T1, MtbCitE (CitE); remark: listed apart in the source
[3] = target: the molecule itself; experiment: cross-linking; chemical cross-linking with 4 μM disuccinimidyl suberate (DSS), 10 mM CitE protein (so in the source), 100 mM NaH2PO4 pH 8.0, 150 mM NaCl, room temperature, half an hour, then SDS-PAGE

`Nc1ncnc2c1ncn2[C@@H]1O[C@H](COP(=O)(O)OP(=O)(O)OP(=O)(O)O)[C@@H](O)[C@H]1O` [ATP] was tested, and the “activity with 0-1.5 mM ATP” value [1] was “the citrate cleavage activity of MtbCitE was inhibited by ATP”.

With `O=C(O)CC(O)(CC(=O)O)C(=O)O` [citrate] the citrate cleavage activity [2] was “we predicted that purified MtbCitE had citrate lyase activity”.

B1: Mycobacterium tuberculosis CitE (MtbCitE), citrate lyase (enzyme)
chain: MNLRAAGPGWLFCPADRPERFAKAAAAADVVILDLEDGVAEAQKPAARNALRDTPLDPERTVVRINAGGTADQARDLEALAGTAYTTVMLPKAESAAQVIELAPRDVIALVETARGAVCAAEIAAADPTVGMMWGAEDLIATLGGSSSRRADGAYRDVARHVRSTILLAASAFGRLALDAVHLDILDVEGLQEEARDAAAVGFDVTVCIHPSQIPVVRKAYRPSHEKLAWARRVLAASRSERGAFAFEGQMVDSPVLTHAETMLRRAGEATSE
notes: also called Rv2498c; citrate lyase β-subunit
With B1 the “stoichiometry N” value [3] was 3.
